# Measured values taken from ChEMBL document CHEMBL1201862, “PubChem BioAssay data set” (2004).
# The source made the active and inactive calls.
# What was measured:
# SUMO-activating enzyme [1] = target: T1, SUMO-activating enzyme (Homo sapiens, UniProt Q9UBT2); assay: inhibitors of in vitro SUMOylation cascade, primary screen, biochemical, HTRF, uHTS (AID 2006); format: protein-complex assay
# [2] = target: 72 kDa type IV collagenase (Homo sapiens, UniProt P08253); assay: Dose Response validation of uHTS RPN11 inhibitor hits using a MMP-2 Fluorescence assay.; format: functional
# Streptococcus = assay: Group A Streptococcus viability loss, dose response, counter-screen for streptokinase expression inhibitor project, luminescence, BacTiterGlo (AID 1915); format: functional, organism-based;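 also: potency for reduction of bacterial viability or growth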
# Streptokinase A = target: T2, Streptokinase A (Streptococcus pyogenes serotype M1, UniProt P10520); assay: S. pyogenes streptokinase expression inhibitors, potency, dose response, plasminogen activation absorbance, OD405 (AID 1914); format: functional, Streptococcus pyogenes M1 GAS;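 also: secreted streptokinase activity via plasminogen activation per viability signal from cell pellet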
# T2 sequence (P10520 whole entry): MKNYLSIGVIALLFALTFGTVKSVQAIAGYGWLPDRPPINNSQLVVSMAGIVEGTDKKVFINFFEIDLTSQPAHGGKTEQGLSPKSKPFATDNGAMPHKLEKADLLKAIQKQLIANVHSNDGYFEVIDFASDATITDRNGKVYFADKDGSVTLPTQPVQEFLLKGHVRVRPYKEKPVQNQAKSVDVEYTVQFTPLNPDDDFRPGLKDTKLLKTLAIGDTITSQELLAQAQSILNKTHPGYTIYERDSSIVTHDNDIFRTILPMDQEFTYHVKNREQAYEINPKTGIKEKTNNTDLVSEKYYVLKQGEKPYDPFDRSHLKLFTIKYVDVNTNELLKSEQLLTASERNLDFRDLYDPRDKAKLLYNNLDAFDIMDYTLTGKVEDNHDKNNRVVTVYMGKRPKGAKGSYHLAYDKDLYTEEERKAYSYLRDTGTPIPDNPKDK
# [3] = target: 26S proteasome non-ATPase regulatory subunit 14 (Homo sapiens, UniProt O00487); assay: inhibition of proteasome subunit RPN11 – biochemical, fluorescence polarization, uHTS hits, confirmation (AID 602368); format: functional
# [4] = target: T3, Small ubiquitin-related modifier 1 (Homo sapiens, UniProt P63165); assay: inhibitors of SUMO1 partner interactions, dose response, biochemical, FRET (AID 624383); format: functional; conditions: read-out: IC50_Mean
# Prothrombin = Prothrombin (Bos taurus, UniProt P00735); assay: thrombin inhibition, dose response, biochemical, fluorescence polarization, uHTS hits (AID 602369); format: functional
# [5] = target: T3, Small ubiquitin-related modifier 1; assay: inhibitors of SUMO1 peptide binding, dose response, biochemical, fluorescence polarization, uHTS hits (AID 624382); format: functional; conditions: read-out: IC50_Mean
# SUMO-activating enzyme [6] = target: T1, SUMO-activating enzyme; assay: SUMOylation inhibitor hit validation, confirmation, SUMOylation inhibitor project, biochemical, AlphaScreen (AID 2018); format: functional
# [7] = system: Streptococcus sp. 'group A'; assay: growth inhibition of control SK(-) GAS strain, dose response, counter-screen for streptokinase expression inhibitor project, luminescence, kanamycin, BacTiterGlo, confirmation (AID 1900); format: functional, organism-based
# [8] = target: Melanin-concentrating hormone receptor 1 (Homo sapiens, UniProt Q99705); assay: Late-stage fluorescence-based counterscreen for antagonists of the G-protein coupled receptor 7 (GPR7): cell-based dose response assay to identify antagonists of the melanin-concentrating hormone receptor 1 (MCHR1) Set 5.; format: functional
# [9] = target: T4, Neuropeptides B/W receptor type 1 (Homo sapiens, UniProt P48145); assay: GPR7 antagonist potency, late-stage follow-up, cell-based, fluorescence, dose response, set 5 (AID 588566); format: functional
# T4 sequence (P48145 whole entry): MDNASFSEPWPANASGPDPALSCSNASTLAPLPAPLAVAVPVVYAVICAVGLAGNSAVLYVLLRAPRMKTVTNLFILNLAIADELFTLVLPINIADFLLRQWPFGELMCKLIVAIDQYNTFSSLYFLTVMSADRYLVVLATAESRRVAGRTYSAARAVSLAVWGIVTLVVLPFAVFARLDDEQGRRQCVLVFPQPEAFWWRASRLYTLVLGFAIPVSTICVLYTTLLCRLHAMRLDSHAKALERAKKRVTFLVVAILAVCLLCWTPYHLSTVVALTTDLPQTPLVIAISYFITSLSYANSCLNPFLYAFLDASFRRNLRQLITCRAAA
# [10] = Luminescence Cell-Based Dose Retest to Confirm Inhibitors of Cancer Stem Cells. [Related pubchem assays (depositor defined):AID2717, AID2721]; format: functional; conditions: Homo sapiens
# [11] = target: Latent membrane protein 1 (Human herpesvirus 4 (strain B95-8), UniProt P03230); assay: TES1-eGFP NF-kB reporter inhibition versus Tet-On dsRED, dose response, selectivity assay for LMP1 NF-kB inhibitor project, imaging, HEK293T, dual-color eGFP/dsRED, cherry-picks (AID 588398); format: functional, cell-based
# [12] = Luminescence Cell-Based Dose Response HTS to Identify Inhibitors of 5'UTR Stem-Loop Driven Prion Protein mRNA Translation in H4 Neuroglioblastoma Cells. [Related pubchem assays: 1827 (Project Summary), 1813 (Primary HTS)]; format: functional
# [13] = inhibitors of firefly luciferase expression or activity, dose response, H4 neuroglioma cells, luminescence (AID 1990); format: functional, cell-based
# cells [14] = format: functional, cell-based
# HEK293 = assay: inhibitors of LMP1-driven NF-kB reporter, dose response, cell-based, HEK293, luciferase, cherry-pick (AID 588343); format: functional; conditions: Homo sapiens
# INS1 = assay: beta cell apoptosis inhibitors, cytokine rescue, dose response, luminescence, retest (AID 449756); format: functional, cell-based; conditions: Rattus norvegicus;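 also: cell death triggered by IL-1 beta plus TNF-alpha plus IFN-gamma mixture; protective hits raise ATP signal compared with cytokine alone wells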
# cells [15] = format: functional, cell-based; remark: listed apart in the source
# [16] = inhibitors of SNCA 5'UTR-driven reporter translation, confirmation, H4 neuroglioma cells, luminescence (AID 1988); format: functional, cell-based
# [17] = insulin promoter down-regulators in MIN6 cells, imaging, high-content screening, mouse beta cells (AID 1628); format: functional
# [18] = cytotoxicity in MIN6 insulinoma cells, dose response, cytotoxicity control, cell-based, mouse insulinoma (AID 2122); format: functional;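 also: confirmatory high-throughput counterscreen run to flag cytotoxic compounds; mouse MIN-6 beta cells carrying an insulin promoter eGFP reporter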
# [19] = target: Cyclin-dependent kinase 19 (Homo sapiens, UniProt Q9BWU1); assay: Navigating the Kinome. Panel member name: CDC2L6; format: functional
# Aurora kinase B = Aurora kinase B (Homo sapiens, UniProt Q96GD4); format: functional
# Aurora kinase A = Aurora kinase A (Homo sapiens, UniProt O14965); format: functional;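 also: value from the Navigating the Kinome kinase panel profiling, panel entry STK6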
# [20] = target: Interleukin-1 receptor-associated kinase 4 (Homo sapiens, UniProt Q9NWZ3); format: functional
# [21] = target: Serine/threonine-protein kinase PAK 1 (Homo sapiens, UniProt Q13153); format: functional
# SRSF protein kinase 1 = SRSF protein kinase 1 (Homo sapiens, UniProt Q96SB4); format: functional;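 also: measured as one member of a kinome-wide kinase profiling panel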
# Chain of SRSF protein kinase 1 (Q96SB4 whole entry): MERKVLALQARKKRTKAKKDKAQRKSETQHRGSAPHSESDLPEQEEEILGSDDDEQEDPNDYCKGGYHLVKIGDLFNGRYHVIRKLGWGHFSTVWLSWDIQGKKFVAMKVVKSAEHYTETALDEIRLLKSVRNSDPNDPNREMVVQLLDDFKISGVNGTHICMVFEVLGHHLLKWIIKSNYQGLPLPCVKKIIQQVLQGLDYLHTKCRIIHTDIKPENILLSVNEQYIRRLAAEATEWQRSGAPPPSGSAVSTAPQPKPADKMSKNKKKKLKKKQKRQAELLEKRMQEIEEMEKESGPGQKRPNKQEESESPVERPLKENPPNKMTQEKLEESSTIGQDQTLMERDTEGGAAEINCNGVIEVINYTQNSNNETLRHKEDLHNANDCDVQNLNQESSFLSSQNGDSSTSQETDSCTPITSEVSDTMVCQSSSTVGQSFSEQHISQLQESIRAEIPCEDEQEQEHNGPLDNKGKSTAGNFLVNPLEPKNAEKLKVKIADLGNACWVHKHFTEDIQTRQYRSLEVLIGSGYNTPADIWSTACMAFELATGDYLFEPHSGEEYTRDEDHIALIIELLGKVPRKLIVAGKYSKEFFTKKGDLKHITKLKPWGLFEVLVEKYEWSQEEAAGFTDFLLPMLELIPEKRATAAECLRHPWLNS
# T3 sequence (P63165 whole entry): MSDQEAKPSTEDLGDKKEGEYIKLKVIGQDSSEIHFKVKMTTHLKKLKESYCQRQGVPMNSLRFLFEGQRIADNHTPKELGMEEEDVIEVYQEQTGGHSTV
# T1 sequence (Q9UBE0 whole entry): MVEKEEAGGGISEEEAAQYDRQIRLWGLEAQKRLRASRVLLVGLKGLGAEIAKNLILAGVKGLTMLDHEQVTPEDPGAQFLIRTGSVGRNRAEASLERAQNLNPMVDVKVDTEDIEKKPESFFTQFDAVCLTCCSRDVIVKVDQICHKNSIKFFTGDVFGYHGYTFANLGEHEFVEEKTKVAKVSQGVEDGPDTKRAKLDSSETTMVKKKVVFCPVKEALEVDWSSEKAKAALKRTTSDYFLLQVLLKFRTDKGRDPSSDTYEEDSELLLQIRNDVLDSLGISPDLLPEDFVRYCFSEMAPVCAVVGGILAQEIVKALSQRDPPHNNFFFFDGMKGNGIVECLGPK
# T1 sequence (Q9UBT2 whole entry): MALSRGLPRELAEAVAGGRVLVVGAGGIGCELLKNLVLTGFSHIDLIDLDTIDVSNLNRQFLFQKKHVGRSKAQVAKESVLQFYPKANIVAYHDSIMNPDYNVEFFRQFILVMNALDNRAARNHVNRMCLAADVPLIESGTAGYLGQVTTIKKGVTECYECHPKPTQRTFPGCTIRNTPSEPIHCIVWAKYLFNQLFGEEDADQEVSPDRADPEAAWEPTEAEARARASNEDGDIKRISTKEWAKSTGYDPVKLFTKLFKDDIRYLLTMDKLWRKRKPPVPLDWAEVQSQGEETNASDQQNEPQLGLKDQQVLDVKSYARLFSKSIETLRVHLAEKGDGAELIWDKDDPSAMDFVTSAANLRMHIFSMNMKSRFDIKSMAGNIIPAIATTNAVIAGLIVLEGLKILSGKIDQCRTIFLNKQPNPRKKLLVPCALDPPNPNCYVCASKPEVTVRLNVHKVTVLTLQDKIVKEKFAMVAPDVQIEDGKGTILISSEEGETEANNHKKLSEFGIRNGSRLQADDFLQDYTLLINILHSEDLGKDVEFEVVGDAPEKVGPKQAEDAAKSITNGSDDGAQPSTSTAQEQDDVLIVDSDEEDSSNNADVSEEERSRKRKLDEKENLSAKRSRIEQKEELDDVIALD
# Chain of 72 kDa type IV collagenase (P08253 whole entry): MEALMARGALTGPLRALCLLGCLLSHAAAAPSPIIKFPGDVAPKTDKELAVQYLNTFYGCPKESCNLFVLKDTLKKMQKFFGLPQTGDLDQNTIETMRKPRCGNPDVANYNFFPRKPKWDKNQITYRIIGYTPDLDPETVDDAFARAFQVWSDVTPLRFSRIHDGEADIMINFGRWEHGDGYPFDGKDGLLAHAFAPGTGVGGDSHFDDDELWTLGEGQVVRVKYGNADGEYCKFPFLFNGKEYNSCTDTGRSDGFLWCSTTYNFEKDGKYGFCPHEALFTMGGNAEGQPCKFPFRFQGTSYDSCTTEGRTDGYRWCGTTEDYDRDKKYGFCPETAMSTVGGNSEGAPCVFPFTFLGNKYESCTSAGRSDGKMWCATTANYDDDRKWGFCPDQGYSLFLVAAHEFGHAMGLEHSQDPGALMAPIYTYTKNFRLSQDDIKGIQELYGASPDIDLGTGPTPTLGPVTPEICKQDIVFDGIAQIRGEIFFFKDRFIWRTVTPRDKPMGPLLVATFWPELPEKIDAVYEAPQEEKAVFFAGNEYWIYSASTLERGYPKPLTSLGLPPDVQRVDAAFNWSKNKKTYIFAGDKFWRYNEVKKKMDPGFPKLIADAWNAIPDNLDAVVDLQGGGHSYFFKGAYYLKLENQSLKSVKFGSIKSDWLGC
# Chain of Cyclin-dependent kinase 19 (Q9BWU1 whole entry): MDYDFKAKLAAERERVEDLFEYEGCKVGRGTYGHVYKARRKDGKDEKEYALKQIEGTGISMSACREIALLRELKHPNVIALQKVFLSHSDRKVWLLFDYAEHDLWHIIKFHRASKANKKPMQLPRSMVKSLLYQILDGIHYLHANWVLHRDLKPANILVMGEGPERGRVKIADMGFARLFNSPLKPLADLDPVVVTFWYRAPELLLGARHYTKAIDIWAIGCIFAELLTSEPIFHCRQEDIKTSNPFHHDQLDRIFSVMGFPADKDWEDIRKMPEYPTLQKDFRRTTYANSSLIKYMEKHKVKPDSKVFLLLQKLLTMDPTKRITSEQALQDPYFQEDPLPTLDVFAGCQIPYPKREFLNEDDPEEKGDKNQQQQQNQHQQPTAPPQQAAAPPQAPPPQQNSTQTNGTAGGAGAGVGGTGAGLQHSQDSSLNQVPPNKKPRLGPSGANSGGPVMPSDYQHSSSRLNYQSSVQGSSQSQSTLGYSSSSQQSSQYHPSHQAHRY
# Chain of Aurora kinase B (Q96GD4 whole entry): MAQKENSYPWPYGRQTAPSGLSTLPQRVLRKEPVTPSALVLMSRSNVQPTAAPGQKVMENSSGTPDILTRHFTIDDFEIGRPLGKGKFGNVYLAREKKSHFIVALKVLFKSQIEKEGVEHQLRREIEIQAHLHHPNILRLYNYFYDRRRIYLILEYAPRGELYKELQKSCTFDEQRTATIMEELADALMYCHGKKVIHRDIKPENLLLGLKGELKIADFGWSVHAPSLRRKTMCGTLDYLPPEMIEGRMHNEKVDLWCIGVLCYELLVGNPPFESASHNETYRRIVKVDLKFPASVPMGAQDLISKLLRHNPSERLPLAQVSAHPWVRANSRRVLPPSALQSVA
# Chain of Melanin-concentrating hormone receptor 1 (Q99705 whole entry): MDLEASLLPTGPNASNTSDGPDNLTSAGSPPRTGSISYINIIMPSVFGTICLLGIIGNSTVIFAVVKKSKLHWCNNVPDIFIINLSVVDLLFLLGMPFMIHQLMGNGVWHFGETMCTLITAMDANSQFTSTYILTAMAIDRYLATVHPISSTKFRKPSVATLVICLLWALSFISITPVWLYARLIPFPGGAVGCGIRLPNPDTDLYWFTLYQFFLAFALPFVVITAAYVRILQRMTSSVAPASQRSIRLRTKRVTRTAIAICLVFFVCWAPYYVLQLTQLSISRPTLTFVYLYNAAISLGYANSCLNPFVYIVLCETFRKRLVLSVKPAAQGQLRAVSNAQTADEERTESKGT
# Chain of Serine/threonine-protein kinase PAK 1 (Q13153 whole entry): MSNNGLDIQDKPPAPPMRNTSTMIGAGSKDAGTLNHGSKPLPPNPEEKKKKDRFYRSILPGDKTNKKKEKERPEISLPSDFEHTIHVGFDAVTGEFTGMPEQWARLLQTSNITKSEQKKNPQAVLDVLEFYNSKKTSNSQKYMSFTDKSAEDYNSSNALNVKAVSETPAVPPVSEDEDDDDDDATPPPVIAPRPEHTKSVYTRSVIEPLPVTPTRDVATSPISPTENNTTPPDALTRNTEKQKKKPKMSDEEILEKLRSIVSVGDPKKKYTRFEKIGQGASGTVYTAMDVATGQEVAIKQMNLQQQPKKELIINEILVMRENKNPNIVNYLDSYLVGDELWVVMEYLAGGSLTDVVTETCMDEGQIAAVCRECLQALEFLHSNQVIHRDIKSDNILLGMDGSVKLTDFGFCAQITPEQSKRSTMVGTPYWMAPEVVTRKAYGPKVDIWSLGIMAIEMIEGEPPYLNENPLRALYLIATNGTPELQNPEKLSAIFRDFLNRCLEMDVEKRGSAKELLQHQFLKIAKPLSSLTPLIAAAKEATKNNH
# Chain of Aurora kinase A (O14965 whole entry): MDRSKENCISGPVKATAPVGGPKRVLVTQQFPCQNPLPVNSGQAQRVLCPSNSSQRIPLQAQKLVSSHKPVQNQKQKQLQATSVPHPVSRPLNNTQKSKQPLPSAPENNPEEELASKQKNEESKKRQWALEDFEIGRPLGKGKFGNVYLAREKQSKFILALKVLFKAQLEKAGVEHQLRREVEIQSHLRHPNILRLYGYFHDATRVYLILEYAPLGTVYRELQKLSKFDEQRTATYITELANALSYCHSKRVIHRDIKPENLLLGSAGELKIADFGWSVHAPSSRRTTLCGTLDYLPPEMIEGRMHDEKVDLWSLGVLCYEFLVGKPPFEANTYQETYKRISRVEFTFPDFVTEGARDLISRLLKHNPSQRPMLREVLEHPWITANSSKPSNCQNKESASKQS
# Chain of Latent membrane protein 1 (P03230 whole entry): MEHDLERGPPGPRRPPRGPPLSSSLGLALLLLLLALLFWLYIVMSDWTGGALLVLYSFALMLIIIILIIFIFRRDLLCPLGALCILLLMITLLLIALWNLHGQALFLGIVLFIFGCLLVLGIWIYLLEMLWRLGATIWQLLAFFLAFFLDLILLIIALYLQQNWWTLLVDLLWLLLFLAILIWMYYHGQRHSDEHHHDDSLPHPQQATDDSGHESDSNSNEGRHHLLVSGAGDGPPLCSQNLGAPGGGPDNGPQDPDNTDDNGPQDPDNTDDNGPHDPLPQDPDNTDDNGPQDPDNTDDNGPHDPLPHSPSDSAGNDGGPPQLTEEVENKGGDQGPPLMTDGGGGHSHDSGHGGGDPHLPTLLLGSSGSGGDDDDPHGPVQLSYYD
structure (smiles),measurement,setting,value
Sc1nnc(-c2cc(-c3ccccc3)[nH]n2)n1/N=C/c1ccc(Br)s1,IC50,SUMO-activating enzyme [1],10.3 µM (active)
same,IC50,[2],> 100 µM (inactive)
same,EC50,Streptococcus,> 150 µM (not active)
same,EC50,Streptokinase A,> 150 µM (not active)
same,IC50,[3],14.5 µM (active)
same,IC50,[4],7.25 µM (active)
same,IC50,Prothrombin,32.9 µM (active)
same,IC50,[5],> 66.6 µM (inactive)
same,IC50,SUMO-activating enzyme [6],6.99 µM (active)
same,EC50,[7],14.6 µM (active)
Cc1cccc(C(C#N)c2c(Cl)cnn(Cc3cccc4ccccc34)c2=O)c1 (centres undefined),IC50,[8],18.8 µM (inactive)
same,IC50,[9],0.379 µM (active)
CCOC(=O)c1c(C)[nH]c(C(=O)N/N=C\c2ccccc2O)c1C,AC50,[10],3.54 µM (active)
same,AC50,[11],14.6 µM (active)
same,EC50,[12],> 120 µM (not active)
same,EC50,[13],> 120 µM (not active)
same,EC50,cells [14],6.77 µM (active)
same,AC50,HEK293,4.91 µM (active)
same,AC50,INS1,1.69 µM (active)
same,EC50,cells [15],41.9 µM (active)
same,EC50,[16],8.44 µM (active)
same,IC50,[17],2.25 µM (active)
same,IC50,[18],1.99 µM (active)
Cc1oc2ncnc(N)c2c1-c1ccc(NC(=O)Nc2cccc(C(F)(F)F)c2)cc1,Ki,[19],3.98 µM (active)
same,Ki,Aurora kinase B,0.0126 µM (active)
same,Ki,Aurora kinase A,0.0794 µM (active)
Cc1ccc(C2(c3ccc(C)cc3)CC2C(=O)Nc2ccncc2)cc1 (centres undefined),Ki,[20],> 10 µM (inactive)
same,Ki,[21],> 10 µM (inactive)
same,Ki,SRSF protein kinase 1,2.51 µM (active)
